Test results from patent publication US20160044922A1, “Control of Ectoparasites” (priority 2014, published 2016).

Columns and labels:
[1] = test system: ticks; assay: Activity on ticks; settings: in vivo
[2] = test system: cabbage looper; settings: cited from earlier work
[3] = test system: cotton aphids; settings: cited from earlier work
[4] = test system: predatory mites and many beneficial insects; settings: under field conditions; cited from earlier work
[5] = test system: tobacco bud worm; settings: cited from earlier work
[6] = rat versus trout liver microsomes; cited from earlier work
[7] = test system: fish, mammals; settings: fish versus mammals; cited from earlier work
[8] = test system: beneficial mite species; settings: under normal use; cited from earlier work
[9] = test system: mosquito larvae; settings: cited from earlier work
[10] = test system: tobacco budworm; settings: cited from earlier work
[11] = test system: southern corn rootworm; settings: cited from earlier work
[12] = test system: Larval-stage lone star ticks (Amblyomma americanum); assay: Dip survival assay, A. americanum larvae; type: in vivo; settings: larvae submerged 30 minutes, counted after 24 hours at 25° with 95% humidity
Protocol: Activity Against A. Americanum Larvae in a Dip Survival Assay
Compound 1 from a dimethyl sulfoxide (DMSO) stock or 2% DMSO alone is dispensed into a round-bottom 96-well plate and mixed with aqueous buffer containing 1% ethanol, 0.2% Triton X100. […] Larval-stage lone star ticks (Amblyomma americanum) are dispensed into the wells containing the Compound and submerged for 30 minutes. The ticks are subsequently dispensed into a tissue biopsy bag, which is allowed to dry for 1 hour. After drying, the bags are incubated at 25° with 95% humidity for 24 hours and the number of live or dead larvae are enumerated. The observations made illustrated in the following table.

[13] = test system: fleas; assay: Activity on fleas; settings: in vivo

Row | Structure (SMILES) | activity on ticks [1] | LC50 [2] [ppm] | LC50 [3] [ppm] | impact on predatory mites and many beneficial insects [4] | metabolism by the tobacco bud worm [5] | degradation by liver microsomes [6] | toxicity [7] | toxicity to beneficial mite species [8] | LC50 [9] [ppm] | activity [10] | activity [11] | Number of live/dead A. americanum larvae 24 hours after treatment ([12]; 0.01% compound) | Number of live/dead A. americanum larvae 24 hours after treatment ([12]; 0.05% compound) | activity on fleas [13]
1 | CC(C)(C)c1ccc(CCOc2ncnc3ccccc23)cc1 [Formula I, 4-tert-butylphenethyl quinazolin-4-yl ether] | active | 188 | 2.6 | minimal impact | extensively metabolized | degraded more extensively by rat liver microsomes than by trout liver microsomes | higher toxicity of the compound to fish than to mammals | relatively low toxicity | 0725 | greater than 400 ppm | greater than 400 ppm | 0/52 | 0/48 | active
2 | CCc1nn(C)c(C(=O)NCc2ccc(C(C)(C)C)cc2)c1Cl [Formula II, 4-chloro-5-ethyl-2-methyl-N-[(4-tert-butylphenyl)methyl]pyrazole-3-carboxamide] |  |  |  | minimal impact |  |  |  | relatively low toxicity |  |  |  |  |  | 
3 | CC(C)(C)c1ccc(CSc2cnn(C(C)(C)C)c(=O)c2Cl)cc1 [pyridaben, 4-chloro-2-tert-butyl-5-[(4-tert-butylphenyl)methylsulfanyl]pyridazin-3-one] |  |  |  | minimal impact |  |  |  |  |  |  |  |  |  | 
